Experimental findings from BindingDB's records for doi:10.1021/jm9900016 (Universit&#224, 1999) are described below.

The assay concerns the target Thymidylate synthase (Lactobacillus casei). In words: In vitro inhibition of Lactobacillus casei Thymidylate synthase.
Turning to `O=C1OC(c2ccc(O)c(F)c2)(c2ccc(O)c(F)c2)c2cc3ccccc3cc21` [3,3-Bis-(3-fluoro-4-hydroxy-phenyl)-3H-naphtho[2,3-c]furan-1-one], the Ki worked out at 1.5 µM.

As to `O=C1OC(c2ccc(O)cc2)(c2ccc(O)cc2)c2ccc3c4c(ccc1c24)CC3` [7,7-Bis-(4-hydroxy-phenyl)-2,7-dihydro-1H-6-oxa-cyclopenta[cd]phenalen-5-one], the Ki is 1.5 µM.

In turn, `O=C1OC(c2ccc(O)c(Cl)c2)(c2ccc(O)c(Cl)c2)c2cc3ccccc3cc21` [3,3-Bis-(3-chloro-4-hydroxy-phenyl)-3H-naphtho[2,3-c]furan-1-one] had a Ki of 1.5 µM. That is a single-digit micromolar value.

Turning to `O=C1OC(c2ccc(O)cc2)(c2ccc(O)c3ccccc23)c2ccccc21` (stereo not drawn) [3-(4-Hydroxy-naphthalen-1-yl)-3-(4-hydroxy-phenyl)-3H-isobenzofuran-1-one], the Ki was determined as 1.5 µM.

In turn, `O=C1OC(c2ccc(O)cc2)(c2ccc(O)cc2)c2cc3ccccc3cc21` [3,3-Bis-(4-hydroxy-phenyl)-3H-naphtho[2,3-c]furan-1-one] returned an inhibitory constant (Ki) of 7 µM.

Compound `O=C1OC(c2ccc(O)c(Cl)c2)(c2ccc(O)c(Cl)c2)c2ccccc21` [3,3-Bis-(3-chloro-4-hydroxy-phenyl)-3H-isobenzofuran-1-one] had a Ki of 1.9 µM.

`O=C1OC(O)(c2ccc(O)c(Cl)c2)c2ccc([N+](=O)[O-])c3cccc1c23` (stereo not drawn) [3-(3-Chloro-4-hydroxy-phenyl)-3-hydroxy-6-nitro-3H-benzo[de]isochromen-1-one] showed a Ki of 0.25 µM.

Consider `O=C1OC(O)(c2ccccc2O)c2cccc3cccc1c23` (stereo not drawn) [3-Hydroxy-3-(2-hydroxy-phenyl)-3H-benzo[de]isochromen-1-one], for which the inhibition constant (Ki) was found to be 105 µM.

For orientation: Ki means the equilibrium dissociation constant of an inhibitor or competing ligand from its target.
